Patent publication US20070179152A1, “Combination therapy for the treatment of neoplasms” (priority 2003, published 2007)
Structures can show the parent of a compound that is named as a salt. Where two headings read alike, the source gives them in different places.

Assays:
Type in all cases: cell-based
[1] = system: HCT116 cells; assay: Anti-proliferation assay (Alamar Blue metabolism), HCT116; details: Homo sapiens, read-out: Percent inhibition of Alamar Blue Metabolism
Experimental: (§1) Itraconazole was obtained from […].). Stock solutions (1000×) of each compound were prepared in DMSO and stored at -20° C. Master stock plates of 2-fold serial dilutions of individual compounds were prepared in 384-well plates. Combination matrices of test compounds were generated from these master stock plates by dilution into growth media described above. […] The combination matrices were used immediately and discarded. The anti-proliferation assays were performed in 384 well plates. […] Cells were diluted in culture media such that 3,000 SKMEL cells, or 1,500 cells for all the other cell lines, were delivered in 35 μl of media into each assay well. […] Then, 4.5 μl of 10× stock solutions from the combination matrices were added to 40 μl of culture media. […] Quantification, using the LJL Analyst AD reader (LJL Biosystems), was taken in the middle of the well with high attenuation, a 100 msec read time, an excitation filter at 530 nm, and an emission filter at 575 nm. For some experiments, quantification was performed using a Wallac Victor^2 reader. Measurements were taken at the top of the well with stabilized energy lamp control; a 100 msec read time, an excitation filter at 530 nm, and an emission filter at 590 nm.

[2] = system: SKMEL-28 cells; assay: Anti-proliferation assay (Alamar Blue metabolism), SKMEL-28; details: Homo sapiens, SK-MEL-28; read-out: Percent inhibition of Alamar Blue Metabolism
Experimental: as §1

[3] = system: A549 cells; assay: Anti-proliferation assay (Alamar Blue metabolism), A549; details: Homo sapiens, read-out: Percent inhibition of Alamar Blue Metabolism
Experimental: as §1

[4] = system: DU145 cells; assay: Anti-proliferation assay (Alamar Blue metabolism), DU145; details: Homo sapiens, DU-145; read-out: Percent inhibition of Alamar Blue Metabolism
Experimental: as §1

CC(C)COCC(CN(Cc1ccccc1)c1ccccc1)N1CCCC1 (stereo not drawn) [Bepridil, beta-((2-methylpropoxy)methyl)-N-phenyl-N-(phenylmethyl)-1-pyrrolidineethanamine]
inhibition at 1.5 µM ([1]; HCT-116, itraconazole 0 μM, bepridil 1.5 μM): 5.1% | inhibition at 3 µM ([1]; HCT-116, itraconazole 0 μM, bepridil 3 μM): 17.4% | inhibition at 6.1 µM ([1]; HCT-116, itraconazole 0 μM, bepridil 6.1 μM): 54% | inhibition at 12 µM ([1]; HCT-116, itraconazole 0 μM, bepridil 12 μM): 33.2% | inhibition at 24 µM ([1]; HCT-116, itraconazole 0 μM, bepridil 24 μM): 79% | inhibition at 48 µM ([1]; HCT-116, itraconazole 0 μM, bepridil 48 μM): 96.4%

CCC(C)n1ncn(-c2ccc(N3CCN(c4ccc(OCC5COC(Cn6cncn6)(c6ccc(Cl)cc6Cl)O5)cc4)CC3)cc2)c1=O (centres unmarked) [Itraconazole, itraconazole]
inhibition at 0.44 µM [2]: 1.5% | inhibition at 0.87 µM [2]: 4.4% | inhibition at 1.7 µM [2]: 6.6% | inhibition at 3.5 µM [2]: 10.4% | inhibition at 7 µM [2]: 12.6% | inhibition at 14 µM [2]: 14% | inhibition at 28 µM [2]: 15% | inhibition at 0.44 µM ([1]; HCT-116, amiodarone 0 μM, itraconazole 0.44 μM): -2.8% | inhibition at 0.87 µM ([1]; HCT-116, amiodarone 0 μM, itraconazole 0.87 μM): 1.9% | inhibition at 1.7 µM ([1]; HCT-116, amiodarone 0 μM, itraconazole 1.7 μM): 8.5% | inhibition at 3.5 µM ([1]; HCT-116, amiodarone 0 μM, itraconazole 3.5 μM): 17.5% | inhibition at 7 µM ([1]; HCT-116, amiodarone 0 μM, itraconazole 7 μM): 20.4% | inhibition at 14 µM ([1]; HCT-116, amiodarone 0 μM, itraconazole 14 μM): 19.1% | inhibition at 28 µM ([1]; HCT-116, amiodarone 0 μM, itraconazole 28 μM): 16% | inhibition at […] ([1]; HCT-116, amiodarone 0 μM, itraconazole […]): -0.7% | inhibition at 0.44 µM ([1]; HCT-116, itraconazole 0.44 μM, bepridil 0 μM): -1.4% | inhibition at 0.44 µM ([1]; HCT-116, itraconazole 0.44 μM, nicardipine 0 μM): -0.5% | inhibition at 0.87 µM ([1]; HCT-116, itraconazole 0.87 μM, bepridil 0 μM): 13.3% | inhibition at 0.87 µM ([1]; HCT-116, itraconazole 0.87 μM, nicardipine 0 μM): 12.3% | inhibition at 1.7 µM ([1]; HCT-116, itraconazole 1.7 μM, bepridil 0 μM): 26.4% | inhibition at 1.7 µM ([1]; HCT-116, itraconazole 1.7 μM, nicardipine 0 μM): 15.4% | inhibition at 3.5 µM ([1]; HCT-116, itraconazole 3.5 μM, bepridil 0 μM): 30.3% | inhibition at 3.5 µM ([1]; HCT-116, itraconazole 3.5 μM, nicardipine 0 μM): 20.1% | inhibition at 7 µM ([1]; HCT-116, itraconazole 7 μM, bepridil 0 μM): 33.1% | inhibition at 7 µM ([1]; HCT-116, itraconazole 7 μM, nicardipine 0 μM): 32.7% | inhibition at 14 µM ([1]; HCT-116, itraconazole 14 μM, bepridil 0 μM): 17.8% | inhibition at 14 µM ([1]; HCT-116, itraconazole 14 μM, nicardipine 0 μM): 19.8% | inhibition at 28 µM ([1]; HCT-116, itraconazole 28 μM, bepridil 0 μM): 17.2% | inhibition at 28 µM ([1]; HCT-116, itraconazole 28 μM, nicardipine 0 μM): 22.4% | inhibition at […] ([1]; HCT-116, itraconazole […], bepridil 0 μM): 5.8% | inhibition at […] ([1]; HCT-116, itraconazole […], nicardipine 0 μM): 3% | inhibition at 0.44 µM [3]: 3.7% | inhibition at 0.87 µM [3]: 11.5% | inhibition at 1.7 µM [3]: 2.8% | inhibition at 3.5 µM [3]: 8% | inhibition at 7 µM [3]: 6.3% | inhibition at 14 µM [3]: 7.4% | inhibition at 28 µM [3]: 9.7% | inhibition at 0.44 µM [4]: -1.6% | inhibition at 0.87 µM [4]: 4.9% | inhibition at 1.7 µM [4]: -4.2% | inhibition at 3.5 µM [4]: -10.1% | inhibition at 7 µM [4]: -13% | inhibition at 14 µM [4]: -4.3% | inhibition at 28 µM [4]: -4.6%

COC(=O)C1=C(C)NC(C)=C(C(=O)OCCN(C)Cc2ccccc2)C1c1cccc([N+](=O)[O-])c1 (centres unmarked) [Nicardipine, 2-(benzyl-methylamino)ethyl methyl 1,4-dihydro-2,6-dimethyl-4-(m-nitrophenyl)-3,5-pyridinedicarboxylate monohydrochloride]
inhibition at 0.3 µM ([1]; HCT-116, itraconazole 0 μM, nicardipine 0.3 μM): 2.6% | inhibition at 0.61 µM ([1]; HCT-116, itraconazole 0 μM, nicardipine 0.61 μM): 1.4% | inhibition at 1.2 µM ([1]; HCT-116, itraconazole 0 μM, nicardipine 1.2 μM): 2.5% | inhibition at 2.4 µM ([1]; HCT-116, itraconazole 0 μM, nicardipine 2.4 μM): 5.2% | inhibition at 4.8 µM ([1]; HCT-116, itraconazole 0 μM, nicardipine 4.8 μM): 7.5% | inhibition at 9.7 µM ([1]; HCT-116, itraconazole 0 μM, nicardipine 9.7 μM): 9.7% | inhibition at 19 µM ([1]; HCT-116, itraconazole 0 μM, nicardipine 19 μM): 25.2% | inhibition at 39 µM ([1]; HCT-116, itraconazole 0 μM, nicardipine 39 μM): 81.7%
